Results reported in patent US8785452B2, “Anti-infective compounds” (priority 2008, dated 2014).
Converted amounts (≈) assume the structure as drawn. Where two headings read alike, the source gives them in different places.

Assays:
[1] = system: M. tuberculosis H37Rv-GFP; assay: microbe, parasite or virus in culture; format: cell-based; settings: Mycobacterium tuberculosis; for inhibition at 0.2 µM: read-out: QUM Confirm % Inhibition 0.2 uM; for inhibition at 2 µM: read-out: QUM Confirm % Inhibition 2 uM; for inhibition at 20 µM: read-out: QUM Confirm % Inhibition 20 uM
[2] = system: M. tuberculosis H37Rv-GFP; assay: microbe, parasite or virus in culture; format: cell-based, Mycobacterium tuberculosis; settings: for inhibition at 0.2 µM / inhibition at 2 µM / inhibition at 20 µM: Macrophage; for inhibition at 0.2 µM: read-out: QIM Confirm % Inhibition 0.2 uM; for inhibition at 2 µM: read-out: QIM Confirm % Inhibition 2 uM
Raw264.7 cells = assay: Cell number (CellNb) from image analysis of the phenotypic cell-based assay
[3] = Mycobacterium tuberculosis, H37RV, confirmation, 0.2 uM, intracellular
[4] = Mycobacterium tuberculosis, H37RV, confirmation, 2 uM, intracellular
[5] = Mycobacterium tuberculosis, H37RV, confirmation, 20 uM, read-out: QIM Confirm % Inhibition 20 uM
[6] = Mycobacterium tuberculosis, H37RV, primary screen, 20 μM, read-out: Primary QIM % Inhibition
[7] = Mycobacterium tuberculosis, H37RV, read-out: Primary QIM % Inhibition
[8] = Mycobacterium tuberculosis, H37RV
[9] = Mycobacterium tuberculosis, H37RV, read-out: QIM Confirm % Inhibition 20 uM

Compound | inhibition at 0.2 µM [1] [%] | inhibition at 2 µM [1] [%] | inhibition at 20 µM [1] [%] | inhibition at 0.2 µM [2, 3] [%] | inhibition at 2 µM [2, 4] [%] | inhibition at 20 µM [2, 5] [%] | inhibition at 20 µM [2, 6] [%] | QIM Confirm CellNb 0.2 uM (Raw264.7 cells; confirmation, 0.2 uM) | QIM Confirm CellNb 2 uM (Raw264.7 cells; confirmation, 2 uM) | QIM Confirm CellNb 20 uM (Raw264.7 cells; confirmation, 20 uM) | Primary QIM CellNb (Raw264.7 cells; primary screen, 20 μM) | other results
NNC(=O)c1ccncc1 [INH, isoniazid, reference compound] |  |  |  |  |  |  |  |  |  |  |  | MIC ([1]; read-out: minimal inhibitory concentration (MIC)): 0.1 µg/mL (≈ 0.729 µM); minimal inhibitory concentration (MIC) [2]: 0.16 ± 0.05 µg/mL (≈ 1.17 µM); MIC ([2]; Mycobacterium tuberculosis, H37RV, 120 h, read-out: minimal inhibitory concentration (MIC)): 0.1 µg/mL (≈ 0.729 µM)
O=[N+]([O-])c1cc(C(F)(F)F)cc([N+](=O)[O-])c1Sc1nc(-c2ccccc2)c[nH]1 [IPK 000 001 32] | 43.9 | 41.2 | 89.1 | 10.3 | 0.2 | 50.7 | 25.4 | 241.4 | 208.5 | 113.8 | 88.3 | 
Cc1nn(-c2ccccc2)c(Cl)c1/C=N/NC(=O)c1ccccn1 [IPK 000 001 90] | 34.6 | 29.4 | 42.3 | 12.7 | 13.2 | 96.5 | 91.9 | 190.0 | 173.6 | 317.6 | 435.5 | 
Cc1ccc2ccc3ccc(C)nc3c2n1 [IPK 000 002 03] | 32.5 | 52.4 | 69.7 | -2 | 7.7 | -12.3 | -28.5 | 241.4 | 92.0 | 148.0 | 77.0 | 
C/C(=N\NC(N)=S)c1ccc(Cl)cc1 [IPK 000 002 17] | 56.9 | 67.4 | 49.7 |  |  |  |  |  |  |  |  | inhibition at 20 µM [2, 7]: 26.6%; inhibition at 0.2 µM [2, 8]: 54.5%; inhibition at 2 µM [2, 8]: 70.4%; inhibition at 20 µM [2, 9]: 24.5%; Primary QIM CellNb (Raw264.7 cells): 235.5; QIM Confirm CellNb 0.2 uM (Raw264.7 cells): 472.3; QIM Confirm CellNb 2 uM (Raw264.7 cells): 541.6; QIM Confirm CellNb 20 uM (Raw264.7 cells): 249.8
O=C(CSc1cccs1)Nc1nccs1 [IPK 000 002 87] | 45.9 | 36.1 | 36.4 | 11.4 | -1.3 | 66 | 65.9 | 315.9 | 246.1 | 412.9 | 350.3 | 
C/C(=N/NC(=O)c1ccncc1)c1cccs1 [IPK 000 003 01] | 46.4 | 82.8 | 43 | 4.7 | 77.1 | 40.4 | 88.2 | 232.6 | 457.3 | 248.3 | 373.5 | 
Clc1ccc(Nc2nc3nonc3nc2Nc2ccc(Cl)c(Cl)c2)cc1Cl [IPK 000 003 89] | 44 | 76.5 | 67 | 20.1 | 86.6 | 84.6 | 27.7 | 265.3 | 200.6 | 103.0 | 72.5 | 
Clc1ccc(Nc2nc3nonc3nc2Nc2ccc(Cl)cc2)cc1 [IPK 000 003 90] | 44 | 68.8 | 72.7 | 2.2 | 43.2 | 67.9 | 15.7 | 142.3 | 75.6 | 133.4 | 78.0 | 
Fc1ccc(Nc2nc3nonc3nc2Nc2ccc(F)cc2)cc1 [IPK 000 003 91] | 46.6 | 41.4 | 76.7 | 2.9 | 36.8 | 76.4 | 31.6 | 220.9 | 148.9 | 128.8 | 63.0 | 
O=C(Nc1ccc(Br)cc1)c1cc([N+](=O)[O-])cc([N+](=O)[O-])c1 [IPK 000 046 92] |  |  |  |  |  | 93.4 | 90.2 |  |  |  | 303.5 | 
CN(C)c1ccc(/N=N/c2ccccc2C(=O)O)cc1 [IPK 000 052 75] |  |  |  |  |  | 10.1 | -77.4 |  |  |  | 48.8 | 
C=CCN1C(=O)/C(=N/NC(=O)c2ccc(F)cc2)c2ccccc21 [IPK 000 104 67] |  |  |  |  |  | 73.7 | 33.8 |  |  |  | 183.0 | 
CCOC(=O)C1(O)c2ccccc2-c2ccccc21 [IPK 000 105 55] |  |  |  |  |  | 91.5 | 89.3 |  |  |  | 181.3 | 
CCCCOC(=O)C1(O)c2ccccc2-c2ccccc21 [IPK 000 105 56] |  |  |  |  |  | 86.9 | 65.7 |  |  |  | 225.0 | 
O=C([O-])Cc1ccccc1Nc1c(Cl)cccc1Cl.[Na+] [IPK 000 117 05] |  |  |  |  |  | 80.5 | 79.8 |  |  |  | 656.5 | 
O=C(O)c1cn(C2CC2)c2cc(N3CCNCC3)c(F)cc2c1=O [IPK 000 117 14] |  |  |  |  |  |  |  |  |  |  | 546.0 | inhibition at 20 µM [2, 7]: 69.1%; inhibition at 20 µM [2, 9]: 66.5%
[C-]#[N+]c1ccc(Cl)cc1C(C)S(=O)(=O)c1ccc(C)cc1 (stereo not shown) [IPK 000 126 33] |  |  |  |  |  |  |  |  | 126.8 |  | 123.3 | inhibition at 20 µM ([2]; Mycobacterium tuberculosis, H37RV, confirmation, 20 uM, intracellular, read-out: QIM Confirm % Inhibition 20 uM): 73.4%; inhibition at 20 µM ([2]; Mycobacterium tuberculosis, H37RV, primary screen, 20 μM, intracellular, read-out: Primary QIM % Inhibition): 80.7%
